Measured values from PubChem BioAssay (NCI).
Several values for one entry are separate records, joined by “and”; a condition that tells them apart may be missing. Equal values may be shown once.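 Values below derive from 48-hour exposures of cells grown in 96-well plates, with endpoints linearly interpolated between the two concentrations bracketing the appropriate inhibition level. Here, GI50 denotes the concentration required for 50% inhibition of growth. TGI: concentration producing complete growth inhibition.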

Columns and labels:
Assay in all cases: NCI-60 cell line screen, 48 h
HOP-18 NSCLC = tested on: HOP-18 NSCLC
KM20L2 colon = tested on: KM20L2 colon
M19-MEL melanoma = tested on: M19-MEL melanoma
XF 498 CNS = tested on: XF 498 CNS
DU-145 prostate = tested on: DU-145 prostate
MCF7 breast = tested on: MCF7 breast
MDA-MB-231 breast = tested on: MDA-MB-231 breast
MDA-MB-435 = tested on: MDA-MB-435
PC-3 prostate = tested on: PC-3 prostate
T-47D breast = tested on: T-47D breast

Structure (SMILES)	TGI (HOP-18 NSCLC)	TGI (KM20L2 colon)	TGI (M19-MEL melanoma)	TGI (XF 498 CNS)	also measured
Cc1cc(=O)oc2cc(OCc3nc4ccccc4c(=O)[nH]3)ccc12	> 100 µM	> 100 µM	> 100 µM	> 100 µM	–
Cc1ccc(/C=C2\CCCC\C2=N\O)cc1	> 100 µM	> 100 µM	> 100 µM	> 100 µM	–
O=C1CCCC1NC(=O)C(F)(F)F (configuration not stated)	–	–	> 100 µM	> 100 µM	–
C/C(=C\CC[C@]1(C)OC(C)(C)OC1CC/C(C)=C/CO[Si](c1ccccc1)(c1ccccc1)C(C)(C)C)CC/C=C/CO[Si](C)(C)C(C)(C)C (some centres not stated)	–	> 100 µM	> 100 µM	–	–
C[CH2][Sn]([Cl])([Cl])[CH2]C	55.4 µM	> 100 µM	> 67.2 µM	–	GI50 (HOP-18 NSCLC): 27 µM; GI50 (KM20L2 colon): 71.4 µM; GI50 (M19-MEL melanoma): 26 µM
CC1=NN(C(=O)c2ccc(Cl)cc2)C(=O)/C1=C/c1ccc(O)cc1	–	> 100 µM	> 100 µM	> 100 µM	–
COc1ccc2c(c1)CC1c3c(cc4c(c3-2)OCO4)CCN1C (configuration not stated)	82.7 µM	> 100 µM	45.2 µM	74 µM	–
C=CCCCCCC(O)C(O)C/C=C\C/C=C\CC (configuration not stated)	> 18.8 µM	> 18.8 µM	–	> 18.8 µM	–
C=C(C)[C@H](O)C(O)CC(C)[C@@H]1CCC23CC12CCC1[C@@]2(C)CCC(OC(C)=O)C(C)(C)C2CC(OC2OC(COC(C)=O)C(O)C(O)C2O)[C@]13C (some centres not stated)	15.2 µM	9.84 µM	10.7 µM	–	–
CC12CC3CC(C1)CC(N=[N+]=[N-])(C3)C2	> 100 µM	> 100 µM	> 100 µM	> 100 µM	–
N#CC(C#N)=C1SCC(=O)CS1	–	> 100 µM	> 100 µM	> 100 µM	–
CCOC(=O)NC(=O)c1cn(CCN2CCN(C(=O)NCCCCCCNC(=O)N3CCN(CCn4cc(C(=O)NC(=O)OCC)c(=O)n(CCN(CC)CC)c4=O)CC3)CC2)c(=O)n(CCC(CC)CC)c1=O	> 100 µM	> 100 µM	> 100 µM	–	–
N#CN1CCC=C(c2cc3ccccc3[nH]2)C1	> 448 µM	> 448 µM	> 448 µM	–	–
COc1ccccc1/C=N/N=C(\N)NO	> 100 µM	–	> 100 µM	–	–
COc1cc([C@@H]2OC(=O)C3C2C(=O)O[C@H]3c2cc(OC)c(OC)c(OC)c2)cc(OC)c1OC (some centres not stated)	> 100 µM	> 100 µM	> 100 µM	> 100 µM	–
Clc1ccc(SCCCCCCCCCCSc2ccc(Cl)cc2)cc1	> 100 µM	> 87 µM	> 100 µM	> 100 µM	–
CNc1nc(N(C)C)nc(N(C)C)n1	> 100 µM and 3780 µM	> 100 µM and 3210 µM	> 100 µM and 3950 µM	> 100 µM and 1720 µM	TGI (DU-145 prostate): 5040 µM; GI50 (HOP-18 NSCLC): > 100 µM and 1130 µM; GI50 (KM20L2 colon): > 100 µM and 718 µM; GI50 (M19-MEL melanoma): > 100 µM and 2040 µM; TGI (MCF7 breast): 1790 µM; TGI (MDA-MB-231 breast): 2640 µM; TGI (MDA-MB-435): 4420 µM; TGI (PC-3 prostate): 3960 µM; TGI (T-47D breast): 3720 µM; GI50 (XF 498 CNS): > 100 µM and 538 µM
C[CH2][Sn]([CH2]C)([O]C(=O)c1cccc(F)c1)[O][Sn]([CH2]C)([CH2]C)[O]C(=O)c1cccc(F)c1	32.5 µM	> 100 µM	31.9 µM	29.8 µM	GI50 (HOP-18 NSCLC): 18.5 µM; GI50 (KM20L2 colon): 38.4 µM; GI50 (M19-MEL melanoma): 16.8 µM; GI50 (XF 498 CNS): 16.2 µM
O=C1C[C@H]2CC3(CC[C@H]2CN1)OCCO3	–	–	> 100 µM	> 100 µM	–
COc1cc(C(=O)CC2(O)C(=O)Nc3c(Cl)cc(Cl)cc32)ccc1O (configuration not stated)	> 100 µM	> 100 µM	–	> 100 µM	–

Structure (SMILES)	TGI (HOP-18 NSCLC)	TGI (KM20L2 colon)	TGI (M19-MEL melanoma)	TGI (XF 498 CNS)	also measured
c1ccc(SC(CCCCOC2CCCCO2)Sc2ccccc2)cc1 (configuration not stated)	–	–	> 100 µM	> 100 µM	–
Cc1ccc(S(=O)(=O)c2c3[nH]c4ccccc4nc3n3c2nc2ccccc23)cc1	–	> 100 µM	> 100 µM	> 100 µM	–
Cn1c(=O)c(C(=O)NC(=O)OCc2ccccc2)cn(CCSCCOC(=O)NCCCCCCNC(=O)OCCSCCn2cc(C(=O)NC(=O)OCc3ccccc3)c(=O)n(C)c2=O)c1=O	–	> 100 µM	> 100 µM	57.6 µM	–
O=C(N/C(=C\c1ccc(Oc2ccc(Cl)c(Cl)c2)cc1)c1nc2ccccc2[nH]1)c1ccccc1	–	37.2 µM	94 µM	34.6 µM	–
Cc1ccc(N2C(=O)/C(=C/c3ccc(N(CCC#N)CCC#N)cc3C)N=C2c2cc([N+](=O)[O-])ccc2Cl)cc1	> 100 µM	–	> 100 µM	–	–
Cc1cccc2c1C/C(=C1\CCc3c(C)cccc31)C2=O	> 100 µM	> 100 µM	> 100 µM	–	–
CC(C)(c1ccc(OC#N)cc1)c1ccc(OC#N)cc1	> 100 µM	> 100 µM	> 100 µM	–	–
CS/C(c1ccccc1)=[N+](/C)[O-]	> 100 µM	> 100 µM	> 100 µM	> 100 µM	–
CC1=C(C(=O)Nc2ccc(F)c(Cl)c2)C(c2cccc(Oc3ccccc3)c2)NC(=O)N1 (configuration not stated)	–	–	–	–	GI50 (DU-145 prostate): 13.4 µM; TGI (DU-145 prostate): 26.4 µM; GI50 (MCF7 breast): 17.6 µM; TGI (MCF7 breast): 43.7 µM; GI50 (MDA-MB-231 breast): 16 µM; TGI (MDA-MB-231 breast): 30.3 µM; GI50 (MDA-MB-435): 18.8 µM; TGI (MDA-MB-435): 39.8 µM; GI50 (PC-3 prostate): 10.5 µM; TGI (PC-3 prostate): 22.3 µM; GI50 (T-47D breast): 15.7 µM; TGI (T-47D breast): 34.6 µM
CC1=Nn2c(nnc2-c2ccc(N)cc2)NC(C)(C)C1	> 100 µM	> 100 µM	> 100 µM	> 100 µM	–
COc1cccc2c(=O)c3c(sc12)c(NCCN(C)C)nc1ccccc13	–	–	–	–	GI50 (DU-145 prostate): 1.68 µM; TGI (DU-145 prostate): 3.17 µM; GI50 (MCF7 breast): 1.25 µM; TGI (MCF7 breast): 2.7 µM; GI50 (MDA-MB-231 breast): 1.34 µM; TGI (MDA-MB-231 breast): 2.87 µM; GI50 (MDA-MB-435): 1.71 µM; TGI (MDA-MB-435): 3.2 µM; GI50 (PC-3 prostate): 1.34 µM; TGI (PC-3 prostate): 3.03 µM; GI50 (T-47D breast): 1.65 µM; TGI (T-47D breast): 3.98 µM
NC(CCSC(F)F)C(=O)O (configuration not stated)	–	> 100 µM	> 100 µM	> 100 µM	–
COc1cc(/C=C2/C(=O)NC(Cc3cc(OC)c(OC)c(C)c3OC)C(=O)N2Cc2ccccc2)c(OC)c(C)c1OC (configuration not stated)	80.4 µM	> 100 µM	> 100 µM	–	–
Cc1ccc(S(=O)(=O)Nc2nc3ccccc3nc2Nc2ccc3nsnc3c2)cc1	–	–	–	–	GI50 (DU-145 prostate): 5.04 µM and 4.45 µM; TGI (DU-145 prostate): > 100 µM; GI50 (MCF7 breast): 6.55 µM and 4.6 µM; TGI (MCF7 breast): > 100 µM; GI50 (MDA-MB-231 breast): 6.58 µM and 7.37 µM; TGI (MDA-MB-231 breast): 26.6 µM and > 100 µM; GI50 (MDA-MB-435): 4.09 µM and 3.15 µM; TGI (MDA-MB-435): > 100 µM; GI50 (PC-3 prostate): 3.22 µM and 2.91 µM; TGI (PC-3 prostate): > 100 µM; GI50 (T-47D breast): 3.34 µM and 3.47 µM; TGI (T-47D breast): > 100 µM
CCOc1ccccc1NC(=O)C1=C(C)NC(C)=C(C(=O)Nc2ccccc2OCC)C1c1ccc(NC(C)=O)cc1	–	98.9 µM	> 100 µM	43.5 µM	–
NCCCCN(Cc1nc2ccccc2[nH]1)[C@H]1CCCc2cccnc21	–	–	–	–	GI50 (DU-145 prostate): 29.2 µM; TGI (DU-145 prostate): > 100 µM; GI50 (MCF7 breast): 17.8 µM; TGI (MCF7 breast): > 72.7 µM; GI50 (MDA-MB-231 breast): 8.88 µM; TGI (MDA-MB-231 breast): 56.3 µM; GI50 (MDA-MB-435): 17.4 µM; TGI (MDA-MB-435): 54.6 µM; GI50 (PC-3 prostate): 5.52 µM; TGI (PC-3 prostate): > 93.2 µM; GI50 (T-47D breast): 21.4 µM; TGI (T-47D breast): > 100 µM
Cc1cccc2c1C(=O)OC2(C)c1cccc2ccccc12 (configuration not stated)	> 100 µM	59.5 µM	> 100 µM	86 µM	–
O=C(CN1C(=O)c2ccccc2C1=O)C(O)CN1C(=O)c2ccccc2C1=O (configuration not stated)	–	–	–	–	TGI (DU-145 prostate): > 100 µM; TGI (MCF7 breast): > 100 µM; TGI (MDA-MB-231 breast): 50.5 µM; TGI (MDA-MB-435): > 100 µM; TGI (PC-3 prostate): > 100 µM; TGI (T-47D breast): > 100 µM
O=C(/C=C1/NC(=O)CS1)Nc1ccccc1	> 100 µM	> 100 µM	> 100 µM	> 100 µM	–
O=C1c2c(nc3ccccc3c2-c2ccccc2)CN1Nc1ccccc1	–	> 100 µM	> 100 µM	> 100 µM	–
